# Assay results from paper PMC9986306, “Beyond CBD: Inhibitory effects of lesser studied phytocannabinoids on human voltage-gated sodium channels” (Frontiers in Physiology, 2023).
# Marks after values point to notes of the source that are not given here.
# How the values were obtained:
# [1] = biological target: T1, human NaV1.1 channel (SCN1A, HEK293T cells) (Homo sapiens, UniProt P35498); assay: Planar patch-clamp, biophysical properties (activation, SSFI, recovery from SSFI); type: cell-based; conditions: change vs vehicle DMSO at IC50 concentration (CBD 18.5 μM, CBGA 13.6 μM, CBDVA 50 μM)
# T1 construct: expressed in transfected cells
# Procedure: (§1) HEK293T cells stably expressing SCN1A or SCN2A and CHO cells stably expressing SCN8A or SCN9A were maintained as previously described ([Richards et al., 2018]; [Milligan et al., 2022]).
# (§2) Patch-clamp recordings were made using a Patchliner® (Nanion Technologies, Munich, Germany) in the whole-cell configuration as previously described ([Richards et al., 2018]; [Milligan et al., 2022]). Briefly, cells were prepared in suspension at a density of 1 × 10^6-5 × 10^7 cells/mL. The external recording solution comprised (in mM): 140 NaCl, 4 KCl, 1 MgCl2, 2 CaCl2, 5 D-glucose, 10 HEPES, pH 7.4 with NaOH, ∼295 mOsm. The internal recording solution comprised (in mM): 50 CsCl, 60 CsF, 10 NaCl, 20 EGTA, 10 HEPES, pH 7.2 with CsOH, ∼285 mOsm. Medium single-hole planar NPC-16 chips with an average resistance of ∼2.5 MΩ were used. Chip and whole-cell capacitance were fully compensated, and 50% series resistance compensation applied. Recordings were acquired at 50 kHz with the low pass filter set to 10 kHz in PATCHMASTER (HEKA Instruments, NY, United States) and performed at 27°C. Offline analysis was performed using Microsoft Excel, MatLab R2019a (MathWorks) and GraphPad Prism 8 (Molecular Devices).
# (§3) Voltage protocols were used, as previously described ([Richards et al., 2018]). Briefly, to study the voltage-dependence of activation, cells were held at −120 mV and depolarized to test potentials, in 5 mV increments, between −120 mV and +50 mV for 100 ms. To study steady-state fast inactivation, cells were held at conditioning pre-pulse potentials ranging from −120 mV to +30 mV in 5 mV increments from a holding potential of −120 mV and a test pulse at 5 mV for 20 ms. Recovery from fast inactivation was studied by pre-pulsing the cells to 0 mV from a holding potential of −120 mV for 50 ms, to fully inactivate channels. The voltage was then stepped back to the holding potential for variable interpulse intervals (ipi from 0 to 39 ms in 3 ms increments). To test channel availability, the voltage was stepped to 0 mV for 50 ms.
# (§4) To examine the voltage-dependence of activation, normalized current-voltage (I-V) relationships were converted to conductance (G) using the following equation: G = I/(V−V r ) where Vr is the reversal potential for Na^+. The voltage-dependence of conductance and availability were normalized and fitted to a Boltzmann equation: G = 1/(1 + exp [(V−V 0.5)/a]), where a is the slope of the half-maximum, V is the potential of the given pulse, and V 0.5 is the potential for the half-maximal activation/inactivation. The time course of inactivation was fitted to a single exponential function I/Imax = I0+A*exp (-t-t0/τ)+C, where I0 is the non-inactivating component, Imax is the peak current, t is time, and A is the component for the time constant τ. Time constants were plotted against voltage and the data fitted with a decaying exponential equation Y = span*exp (−K*x)+plateau, where span is the starting point of the curve, K is the decay factor, plateau is the value the curve decays to, and x is time. To measure recovery from inactivation, normalized currents were plotted against ipi and data fitted with equation I/I max = 1-exp/(rc + x), where I max is maximal current; rc recovery rate constant; x is time. Peak current (I) was plotted as fractional recovery against the recovery period by normalizing to the maximum current (Imax) during the conditioning potentials.
# [2] = biological target: T2, human NaV1.2 channel (SCN2A, HEK293T cells) (Homo sapiens, UniProt Q99250); assay: as above; type: cell-based; conditions: change vs vehicle DMSO at IC50 concentration (CBD 18.4 μM, CBGA 14.7 μM, CBDVA 60 μM)
# T2 construct: expressed in transfected cells
# T2 sequence (Q99250 whole entry): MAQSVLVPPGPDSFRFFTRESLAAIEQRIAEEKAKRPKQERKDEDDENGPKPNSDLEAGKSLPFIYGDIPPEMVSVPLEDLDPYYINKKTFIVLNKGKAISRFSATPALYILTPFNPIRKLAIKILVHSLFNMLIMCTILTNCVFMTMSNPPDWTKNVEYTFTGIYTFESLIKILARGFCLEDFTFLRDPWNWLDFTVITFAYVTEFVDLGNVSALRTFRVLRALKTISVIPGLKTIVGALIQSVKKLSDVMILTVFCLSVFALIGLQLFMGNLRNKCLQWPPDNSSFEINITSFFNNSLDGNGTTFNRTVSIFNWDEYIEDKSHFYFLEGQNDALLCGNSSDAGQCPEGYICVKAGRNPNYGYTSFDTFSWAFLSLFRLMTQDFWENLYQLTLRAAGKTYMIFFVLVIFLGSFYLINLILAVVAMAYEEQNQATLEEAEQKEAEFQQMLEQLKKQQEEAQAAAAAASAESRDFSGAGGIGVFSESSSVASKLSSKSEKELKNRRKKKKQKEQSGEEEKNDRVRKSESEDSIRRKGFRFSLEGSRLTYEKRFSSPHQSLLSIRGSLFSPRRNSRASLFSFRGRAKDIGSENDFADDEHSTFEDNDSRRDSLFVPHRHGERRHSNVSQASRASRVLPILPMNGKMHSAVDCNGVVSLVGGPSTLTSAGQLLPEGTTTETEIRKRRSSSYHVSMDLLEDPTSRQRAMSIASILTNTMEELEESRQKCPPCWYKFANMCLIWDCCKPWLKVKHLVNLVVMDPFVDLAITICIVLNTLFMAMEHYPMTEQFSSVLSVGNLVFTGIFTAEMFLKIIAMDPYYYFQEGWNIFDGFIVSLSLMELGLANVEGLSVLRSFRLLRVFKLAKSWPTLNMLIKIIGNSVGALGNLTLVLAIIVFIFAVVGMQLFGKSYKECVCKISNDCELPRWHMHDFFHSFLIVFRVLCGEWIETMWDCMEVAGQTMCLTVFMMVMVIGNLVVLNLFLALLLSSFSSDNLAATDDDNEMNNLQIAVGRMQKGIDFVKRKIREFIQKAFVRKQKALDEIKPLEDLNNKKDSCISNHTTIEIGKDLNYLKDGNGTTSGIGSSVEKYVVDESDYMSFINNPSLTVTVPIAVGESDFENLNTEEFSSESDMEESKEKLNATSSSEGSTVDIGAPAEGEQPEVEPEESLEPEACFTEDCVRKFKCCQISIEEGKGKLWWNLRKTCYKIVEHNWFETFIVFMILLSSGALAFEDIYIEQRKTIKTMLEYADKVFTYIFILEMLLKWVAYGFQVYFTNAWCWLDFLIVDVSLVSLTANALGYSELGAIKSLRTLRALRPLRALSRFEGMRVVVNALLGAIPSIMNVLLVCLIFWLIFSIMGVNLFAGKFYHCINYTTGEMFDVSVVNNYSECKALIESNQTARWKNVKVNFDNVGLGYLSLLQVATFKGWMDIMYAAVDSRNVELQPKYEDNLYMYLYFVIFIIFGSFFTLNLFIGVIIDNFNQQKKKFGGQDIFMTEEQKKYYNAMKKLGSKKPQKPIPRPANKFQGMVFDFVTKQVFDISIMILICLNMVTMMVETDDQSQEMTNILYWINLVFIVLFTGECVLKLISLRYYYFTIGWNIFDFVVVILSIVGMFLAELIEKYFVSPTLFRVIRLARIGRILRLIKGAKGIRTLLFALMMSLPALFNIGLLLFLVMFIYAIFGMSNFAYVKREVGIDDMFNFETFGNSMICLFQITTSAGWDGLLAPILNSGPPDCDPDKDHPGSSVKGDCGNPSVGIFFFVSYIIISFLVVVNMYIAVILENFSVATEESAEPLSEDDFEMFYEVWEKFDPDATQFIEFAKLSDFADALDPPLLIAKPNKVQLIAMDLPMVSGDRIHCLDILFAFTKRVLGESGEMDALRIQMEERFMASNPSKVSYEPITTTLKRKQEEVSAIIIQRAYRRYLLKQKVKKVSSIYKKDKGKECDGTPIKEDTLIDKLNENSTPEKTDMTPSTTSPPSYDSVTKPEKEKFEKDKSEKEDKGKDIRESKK
# Procedure: as §1, §2, §3, §4
# [3] = biological target: T3, human NaV1.6 channel (SCN8A, CHO cells) (Homo sapiens, UniProt Q9UQD0); assay: as above; type: cell-based; conditions: change vs vehicle DMSO at IC50 concentration (CBD 16.6 μM, CBGA 12.0 μM, CBDVA 24.1 μM)
# T3 construct: expressed in transfected cells
# T3 sequence (Q9UQD0 whole entry): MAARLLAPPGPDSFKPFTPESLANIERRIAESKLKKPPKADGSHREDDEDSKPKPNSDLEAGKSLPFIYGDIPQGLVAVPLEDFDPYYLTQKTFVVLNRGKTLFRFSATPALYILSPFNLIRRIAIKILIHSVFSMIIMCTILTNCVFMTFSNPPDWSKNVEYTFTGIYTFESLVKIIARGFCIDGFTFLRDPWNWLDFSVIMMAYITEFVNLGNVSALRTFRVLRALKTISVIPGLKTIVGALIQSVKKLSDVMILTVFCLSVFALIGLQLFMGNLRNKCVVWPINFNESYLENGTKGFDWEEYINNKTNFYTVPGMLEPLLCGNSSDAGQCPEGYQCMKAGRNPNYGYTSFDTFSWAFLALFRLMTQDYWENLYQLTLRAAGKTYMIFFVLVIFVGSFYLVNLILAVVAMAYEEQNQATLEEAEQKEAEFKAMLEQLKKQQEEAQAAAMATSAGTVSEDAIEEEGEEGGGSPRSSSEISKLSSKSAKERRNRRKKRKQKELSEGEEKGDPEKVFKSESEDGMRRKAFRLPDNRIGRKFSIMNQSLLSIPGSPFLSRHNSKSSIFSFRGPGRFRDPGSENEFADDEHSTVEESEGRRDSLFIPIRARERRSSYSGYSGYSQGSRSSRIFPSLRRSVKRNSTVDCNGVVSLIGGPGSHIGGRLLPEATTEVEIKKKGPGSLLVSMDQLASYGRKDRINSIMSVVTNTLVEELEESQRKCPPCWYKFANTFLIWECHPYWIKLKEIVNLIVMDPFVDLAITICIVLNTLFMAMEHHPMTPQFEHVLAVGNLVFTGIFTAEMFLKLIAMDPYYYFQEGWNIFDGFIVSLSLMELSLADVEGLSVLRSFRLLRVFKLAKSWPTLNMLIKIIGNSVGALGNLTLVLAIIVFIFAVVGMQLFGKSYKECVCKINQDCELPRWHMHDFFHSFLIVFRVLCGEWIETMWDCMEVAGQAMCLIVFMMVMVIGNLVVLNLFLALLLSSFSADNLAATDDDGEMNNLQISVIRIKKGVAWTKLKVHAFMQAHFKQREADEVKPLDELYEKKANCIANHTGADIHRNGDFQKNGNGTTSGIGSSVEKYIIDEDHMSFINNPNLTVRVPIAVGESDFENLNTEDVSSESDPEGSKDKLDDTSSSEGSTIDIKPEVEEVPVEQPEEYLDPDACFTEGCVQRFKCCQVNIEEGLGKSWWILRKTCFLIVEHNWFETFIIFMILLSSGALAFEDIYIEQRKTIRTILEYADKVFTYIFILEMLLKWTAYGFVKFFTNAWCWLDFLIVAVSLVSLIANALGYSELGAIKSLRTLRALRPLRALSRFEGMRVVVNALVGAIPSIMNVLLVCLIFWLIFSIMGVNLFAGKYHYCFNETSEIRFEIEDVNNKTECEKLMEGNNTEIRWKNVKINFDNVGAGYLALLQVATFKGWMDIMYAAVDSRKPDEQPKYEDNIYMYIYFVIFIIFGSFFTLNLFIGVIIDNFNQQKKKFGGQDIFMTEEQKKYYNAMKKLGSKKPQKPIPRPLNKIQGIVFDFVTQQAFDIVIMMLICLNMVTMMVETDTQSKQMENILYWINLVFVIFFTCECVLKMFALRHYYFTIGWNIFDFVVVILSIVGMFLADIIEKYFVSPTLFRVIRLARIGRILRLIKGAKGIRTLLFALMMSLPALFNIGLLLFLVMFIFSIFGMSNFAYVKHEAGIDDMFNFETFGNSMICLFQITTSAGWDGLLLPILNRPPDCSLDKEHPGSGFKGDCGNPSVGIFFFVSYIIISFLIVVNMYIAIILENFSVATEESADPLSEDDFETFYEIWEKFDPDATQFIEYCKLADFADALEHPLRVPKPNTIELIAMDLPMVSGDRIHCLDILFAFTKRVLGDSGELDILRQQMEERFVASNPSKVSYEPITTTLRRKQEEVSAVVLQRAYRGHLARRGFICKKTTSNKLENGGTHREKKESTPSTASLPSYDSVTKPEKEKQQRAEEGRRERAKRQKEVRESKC
# Procedure: as §1, §2, §3, §4
# [4] = biological target: T4, human NaV1.7 channel (SCN9A, CHO cells) (Homo sapiens, UniProt Q15858); assay: as above; type: cell-based; conditions: change vs vehicle DMSO at IC50 concentration (CBD 11.9 μM, CBGA 16.4 μM, CBDVA 60 μM)
# T4 construct: expressed in transfected cells
# Procedure: as §1, §2, §3, §4
# [5] = biological target: T1, human NaV1.1 channel (SCN1A, HEK293T cells); parameters: method as in Milligan et al., 2022; conditions: NaV1.1 concentration-response of CBD; mean ± SEM; ref Milligan et al., 2022; cited from earlier work
# [6] = biological target: T2, human NaV1.2 channel (SCN2A, HEK293T cells); parameters: method as in Milligan et al., 2022; conditions: NaV1.2 concentration-response of CBD; mean ± SEM; ref Milligan et al., 2022; cited from earlier work
# [7] = biological target: T3, human NaV1.6 channel (SCN8A, CHO cells); parameters: method as in Milligan et al., 2022; conditions: NaV1.6 concentration-response of CBD; mean ± SEM; ref Milligan et al., 2022; cited from earlier work
# [8] = biological target: T4, human NaV1.7 channel (SCN9A, CHO cells); parameters: method as in Milligan et al., 2022; conditions: NaV1.7 concentration-response of CBD; mean ± SEM; ref Milligan et al., 2022; cited from earlier work
# [9] = tested on: mouse models of neuropathic pain; parameters: method as in Abraham et al., 2020; Casey et al., 2022; conditions: ref Abraham et al., 2020, Casey et al., 2022; cited from earlier work
# [10] = tested on: patients with Dravet syndrome (DS) and Lennox-Gastaut syndrome (LGS); parameters: method as in earlier work; conditions: Phase III clinical trials, ref Devinsky et al., 2017a, 2017b, 2018, 2020, 2021, Tang and Fang; cited from earlier work
compound,measurement,setting,value
"C=C(C)[C@@H]1CCC(C)=C[C@H]1c1c(O)cc(CCCCC)cc1O [CBD, cannabidiol, reference compound]",Inactivation △ V0.5 inact,[1]; SSFI,−5.6 ± 1.1**** mV
same,Inactivation △ slope factor,[1]; SSFI,0.5 ± 0.3
same,Activation △ Slope factor,[1],0.7 ± 0.2**
same,Activation △ V0.5 act,[1],0.3 ± 1.2 mV
same,Inactivation △ τinact SSFI at 5 mV,[1],0.03 ± 0.02
same,Inactivation △ V0.5 inact,[2]; SSFI,−4.2 ± 1.9 mV
same,Inactivation △ slope factor,[2]; SSFI,0.1 ± 0.2
same,Activation △ Slope factor,[2],1.0 ± 0.3*
same,Activation △ V0.5 act,[2],3.3 ± 2.7 mV
same,Inactivation △ τinact SSFI at 5 mV,[2],0.08 ± 0.07
same,Inactivation △ V0.5 inact,[3]; SSFI,−5.3 ± 3.6 mV
same,Inactivation △ slope factor,[3]; SSFI,−0.3 ± 0.7
same,Activation △ Slope factor,[3],0.2 ± 0.2
same,Activation △ V0.5 act,[3],−0.6 ± 1.1 mV
same,Inactivation △ τinact SSFI at 5 mV,[3],0.03 ± 0.06
same,Inactivation △ V0.5 inact,[4]; SSFI,−3.7 ± 1.2** mV
same,Inactivation △ slope factor,[4]; SSFI,1.2 ± 0.3***
same,Activation △ Slope factor,[4],1.9 ± 0.3****
same,Activation △ V0.5 act,[4],5.7 ± 2.3* mV
same,Inactivation △ τinact SSFI at 5 mV,[4],0.3 ± 0.1*
same,Slope (Hill slope coefficient),[5],2.1 ± 0.8
same,Slope (Hill slope coefficient),[6],1.4 ± 0.4
same,Slope (Hill slope coefficient),[7],1.3 ± 0.4
same,Slope (Hill slope coefficient),[8],3.1 ± 0.6
same,Effect on allodynia,[9],reduced allodynia
same,Effect on seizures in patients,[10],reduced seizures
